# Measurements from patent US11718604B2, “4-amino-6-(1,3-benzodioxole)picolinates and their use as herbicides” (Dow AgroSciences LLC, priority 2018, dated 2023).
# Tests used:
# Assay type in all cases: in vivo
# [1] = tested on: DIGSA: large crabgrass (Digitaria sanguinalis); experiment: Post-emergent herbicidal test, large crabgrass; conditions: post-emergence, 336 h, 14 days after application, read-out: Visual Growth Reduction (%) 14 Days After Application DIGSA; for pest or weed control at 17.5 g/ha: 17.5 g ai/ha; for pest or weed control at 35 g/ha: 35 g ai/ha; for pest or weed control at 70 g/ha: 70 g ai/ha; for pest or weed control at 140 g/ha: 140 g ai/ha
# In short: (§1)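 Greenhouse-grown plants at the first or second true leaf stage (7-21 d, ~15 h photoperiod, 23-29° C day) were sprayed overhead at 187 L/ha with compound in acetone/DMSO-based spray solution containing crop oil concentrate and surfactant. Injury was scored visually after 14 d, 0-100% versus untreated plants.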
# [2] = tested on: SORVU: shattercane (Sorghum bicolor); experiment: Post-emergent herbicidal test, shattercane; conditions: post-emergence, 336 h, 14 days after application, read-out: Visual Growth Reduction (%) 14 Days After Application SORVU; for pest or weed control at 17.5 g/ha: 17.5 g ai/ha; for pest or weed control at 35 g/ha: 35 g ai/ha; for pest or weed control at 70 g/ha: 70 g ai/ha; for pest or weed control at 140 g/ha: 140 g ai/ha
# In short: as §1
# [3] = tested on: CYPES: yellow nutsedge (Cyperus esculentus); experiment: Post-emergent herbicidal test, yellow nutsedge; conditions: post-emergence, 336 h, 14 days after application, read-out: Visual Growth Reduction (%) 14 Days After Application CYPES; for pest or weed control at 17.5 g/ha: 17.5 g ai/ha; for pest or weed control at 35 g/ha: 35 g ai/ha; for pest or weed control at 70 g/ha: 70 g ai/ha; for pest or weed control at 140 g/ha: 140 g ai/ha
# In short: as §1
# [4] = tested on: EPHHL: wild poinsettia (Euphorbia heterophylla); experiment: Post-emergent herbicidal test, wild poinsettia; conditions: post-emergence, 336 h, 14 days after application, read-out: Visual Growth Reduction (%) 14 Days After Application EPHHL; for pest or weed control at 17.5 g/ha: 17.5 g ai/ha; for pest or weed control at 35 g/ha: 35 g ai/ha; for pest or weed control at 70 g/ha: 70 g ai/ha; for pest or weed control at 140 g/ha: 140 g ai/ha
# In short: as §1
# [5] = tested on: ABUTH: velvetleaf (Abutilon theophrasti); experiment: Post-emergent herbicidal test, velvetleaf; conditions: post-emergence, 336 h, 14 days after application, read-out: Visual Growth Reduction (%) 14 Days After Application ABUTH; for pest or weed control at 17.5 g/ha: 17.5 g ai/ha; for pest or weed control at 35 g/ha: 35 g ai/ha; for pest or weed control at 70 g/ha: 70 g ai/ha; for pest or weed control at 140 g/ha: 140 g ai/ha
# In short: as §1
# [6] = tested on: ECHCG: barnyardgrass (Echinochloa crus-galli); experiment: Post-emergent herbicidal test, barnyardgrass; conditions: post-emergence, 336 h, 14 days after application, read-out: Visual Growth Reduction (%) 14 Days After Application ECHCG; for pest or weed control at 17.5 g/ha: 17.5 g ai/ha; for pest or weed control at 35 g/ha: 35 g ai/ha; for pest or weed control at 70 g/ha: 70 g ai/ha; for pest or weed control at 140 g/ha: 140 g ai/ha
# In short: as §1
# [7] = tested on: BRSNN: oilseed rape, canola (Brassica napus); experiment: Post-emergent herbicidal test, oilseed rape; conditions: post-emergence, 336 h, 14 days after application, read-out: Visual Growth Reduction (%) 14 Days After Application BRSNN; for pest or weed control at 17.5 g/ha: 17.5 g ai/ha; for pest or weed control at 35 g/ha: 35 g ai/ha; for pest or weed control at 70 g/ha: 70 g ai/ha; for pest or weed control at 140 g/ha: 140 g ai/ha
# In short: as §1
# [8] = tested on: VIOTR: wild violet (Viola tricolor); experiment: Post-emergent herbicidal test, wild violet; conditions: post-emergence, 336 h, 14 days after application, read-out: Visual Growth Reduction (%) 14 Days After Application VIOTR; for pest or weed control at 17.5 g/ha: 17.5 g ai/ha; for pest or weed control at 35 g/ha: 35 g ai/ha; for pest or weed control at 70 g/ha: 70 g ai/ha; for pest or weed control at 140 g/ha: 140 g ai/ha
# In short: as §1
# [9] = tested on: IPOHE: ivyleaf morningglory (Ipomoea hederacea); experiment: Post-emergent herbicidal test, ivyleaf morningglory; conditions: post-emergence, 336 h, 14 days after application, read-out: Visual Growth Reduction (%) 14 Days After Application IPOHE; for pest or weed control at 17.5 g/ha: 17.5 g ai/ha; for pest or weed control at 35 g/ha: 35 g ai/ha; for pest or weed control at 70 g/ha: 70 g ai/ha; for pest or weed control at 140 g/ha: 140 g ai/ha
# In short: as §1
# [10] = tested on: SETFA: giant foxtail (Setaria faberi); experiment: Post-emergent herbicidal test, giant foxtail; conditions: post-emergence, 336 h, 14 days after application, read-out: Visual Growth Reduction (%) 14 Days After Application SETFA; for pest or weed control at 17.5 g/ha: 17.5 g ai/ha; for pest or weed control at 35 g/ha: 35 g ai/ha; for pest or weed control at 70 g/ha: 70 g ai/ha; for pest or weed control at 140 g/ha: 140 g ai/ha
# In short: as §1
# [11] = tested on: CIRAR: Canada thistle (Cirsium arvense); experiment: Post-emergent herbicidal test, Canada thistle; conditions: post-emergence, 336 h, 14 days after application, read-out: Visual Growth Reduction (%) 14 Days After Application CIRAR; for pest or weed control at 17.5 g/ha: 17.5 g ai/ha; for pest or weed control at 35 g/ha: 35 g ai/ha; for pest or weed control at 70 g/ha: 70 g ai/ha; for pest or weed control at 140 g/ha: 140 g ai/ha
# In short: as §1
compound,measurement,setting,value
COC(=O)c1nc(-c2ccc(Cl)c3c2OC(F)(F)O3)c(F)c(N)c1Cl [Compound 6],pest or weed control at 17.5 g/ha,[1],0%
same,pest or weed control at 35 g/ha,[1],0%
same,pest or weed control at 70 g/ha,[1],0%
same,pest or weed control at 140 g/ha,[1],0%
same,pest or weed control at 17.5 g/ha,[2],0%
same,pest or weed control at 35 g/ha,[2],2%
same,pest or weed control at 70 g/ha,[2],10%
same,pest or weed control at 140 g/ha,[2],23%
same,pest or weed control at 17.5 g/ha,[3],30%
same,pest or weed control at 35 g/ha,[3],25%
same,pest or weed control at 70 g/ha,[3],25%
same,pest or weed control at 140 g/ha,[3],60%
same,pest or weed control at 17.5 g/ha,[4],2%
same,pest or weed control at 35 g/ha,[4],0%
same,pest or weed control at 70 g/ha,[4],2%
same,pest or weed control at 140 g/ha,[4],7%
same,pest or weed control at 17.5 g/ha,[5],75%
same,pest or weed control at 35 g/ha,[5],77%
same,pest or weed control at 70 g/ha,[5],80%
same,pest or weed control at 140 g/ha,[5],83%
same,pest or weed control at 17.5 g/ha,[6],0%
same,pest or weed control at 35 g/ha,[6],0%
same,pest or weed control at 70 g/ha,[6],3%
same,pest or weed control at 140 g/ha,[6],3%
same,pest or weed control at 17.5 g/ha,[7],80%
same,pest or weed control at 35 g/ha,[7],82%
same,pest or weed control at 70 g/ha,[7],92%
same,pest or weed control at 140 g/ha,[7],97%
same,pest or weed control at 17.5 g/ha,[8],3%
same,pest or weed control at 35 g/ha,[8],12%
same,pest or weed control at 70 g/ha,[8],30%
same,pest or weed control at 140 g/ha,[8],53%
same,pest or weed control at 17.5 g/ha,[9],0%
same,pest or weed control at 35 g/ha,[9],3%
same,pest or weed control at 70 g/ha,[9],3%
same,pest or weed control at 140 g/ha,[9],10%
same,pest or weed control at 17.5 g/ha,[10],0%
same,pest or weed control at 35 g/ha,[10],0%
same,pest or weed control at 70 g/ha,[10],0%
same,pest or weed control at 140 g/ha,[10],3%
same,pest or weed control at 17.5 g/ha,[11],70%
same,pest or weed control at 35 g/ha,[11],77%
same,pest or weed control at 70 g/ha,[11],85%
same,pest or weed control at 140 g/ha,[11],88%
COC(=O)c1nc(-c2ccc(F)c3c2OC(F)(F)O3)c(F)c(N)c1Cl [Compound 7],pest or weed control at 17.5 g/ha,[1],0%
same,pest or weed control at 35 g/ha,[1],0%
same,pest or weed control at 70 g/ha,[1],0%
same,pest or weed control at 140 g/ha,[1],0%
same,pest or weed control at 17.5 g/ha,[2],0%
same,pest or weed control at 35 g/ha,[2],0%
same,pest or weed control at 70 g/ha,[2],0%
same,pest or weed control at 140 g/ha,[2],0%
same,pest or weed control at 17.5 g/ha,[3],0%
same,pest or weed control at 35 g/ha,[3],10%
same,pest or weed control at 70 g/ha,[3],30%
same,pest or weed control at 140 g/ha,[3],40%
same,pest or weed control at 17.5 g/ha,[4],0%
same,pest or weed control at 35 g/ha,[4],0%
same,pest or weed control at 70 g/ha,[4],10%
same,pest or weed control at 140 g/ha,[4],20%
same,pest or weed control at 17.5 g/ha,[5],50%
same,pest or weed control at 35 g/ha,[5],70%
same,pest or weed control at 70 g/ha,[5],75%
same,pest or weed control at 140 g/ha,[5],85%
same,pest or weed control at 17.5 g/ha,[6],0%
same,pest or weed control at 35 g/ha,[6],0%
same,pest or weed control at 70 g/ha,[6],0%
same,pest or weed control at 140 g/ha,[6],0%
same,pest or weed control at 17.5 g/ha,[7],50%
same,pest or weed control at 35 g/ha,[7],60%
same,pest or weed control at 70 g/ha,[7],80%
same,pest or weed control at 140 g/ha,[7],85%
same,pest or weed control at 17.5 g/ha,[8],5%
same,pest or weed control at 35 g/ha,[8],10%
same,pest or weed control at 70 g/ha,[8],40%
same,pest or weed control at 140 g/ha,[8],50%
same,pest or weed control at 17.5 g/ha,[9],0%
same,pest or weed control at 35 g/ha,[9],0%
same,pest or weed control at 70 g/ha,[9],0%
same,pest or weed control at 140 g/ha,[9],0%
same,pest or weed control at 17.5 g/ha,[10],0%
same,pest or weed control at 35 g/ha,[10],0%
same,pest or weed control at 70 g/ha,[10],0%
same,pest or weed control at 140 g/ha,[10],10%
same,pest or weed control at 17.5 g/ha,[11],60%
same,pest or weed control at 35 g/ha,[11],70%
same,pest or weed control at 70 g/ha,[11],75%
same,pest or weed control at 140 g/ha,[11],80%
